The values below come from US6867192B1, “Compounds useful in the treatment of inflammatory diseases” (priority 1998, dated 2005).

The structures appear in SMILES notation. Starred links: 1 amine or outer side, 2 acyl side, 3 side chain; linkers in the order of their positions; H or OH if unused. Residues, ends and D or L forms follow the SMILES beside them. Groups on a side chain read outwards from the residue. *: point of attachment. Morpholide = C1CN(*)CCO1; Cbz = O=C(OCc1ccccc1)*; CO = O=C([*:1])[*:2]

The target of the experiment is T1, integrin VLA-4, expressed on the Jurkat J6 (human lymphoblast cell line) cell membrane with VCAM-1 (Homo sapiens, UniProt P05556+P13612).
T1 construct: integrin VLA-4, expressed on the Jurkat J6 (human lymphoblast cell line) cell membrane; endogenous in cells; host or cells: Jurkat J6 cells (integrin). zzVCAM-1 was made in house in Drosophila melanogaster S2 cells
T1 sequence (P13612 34-1032): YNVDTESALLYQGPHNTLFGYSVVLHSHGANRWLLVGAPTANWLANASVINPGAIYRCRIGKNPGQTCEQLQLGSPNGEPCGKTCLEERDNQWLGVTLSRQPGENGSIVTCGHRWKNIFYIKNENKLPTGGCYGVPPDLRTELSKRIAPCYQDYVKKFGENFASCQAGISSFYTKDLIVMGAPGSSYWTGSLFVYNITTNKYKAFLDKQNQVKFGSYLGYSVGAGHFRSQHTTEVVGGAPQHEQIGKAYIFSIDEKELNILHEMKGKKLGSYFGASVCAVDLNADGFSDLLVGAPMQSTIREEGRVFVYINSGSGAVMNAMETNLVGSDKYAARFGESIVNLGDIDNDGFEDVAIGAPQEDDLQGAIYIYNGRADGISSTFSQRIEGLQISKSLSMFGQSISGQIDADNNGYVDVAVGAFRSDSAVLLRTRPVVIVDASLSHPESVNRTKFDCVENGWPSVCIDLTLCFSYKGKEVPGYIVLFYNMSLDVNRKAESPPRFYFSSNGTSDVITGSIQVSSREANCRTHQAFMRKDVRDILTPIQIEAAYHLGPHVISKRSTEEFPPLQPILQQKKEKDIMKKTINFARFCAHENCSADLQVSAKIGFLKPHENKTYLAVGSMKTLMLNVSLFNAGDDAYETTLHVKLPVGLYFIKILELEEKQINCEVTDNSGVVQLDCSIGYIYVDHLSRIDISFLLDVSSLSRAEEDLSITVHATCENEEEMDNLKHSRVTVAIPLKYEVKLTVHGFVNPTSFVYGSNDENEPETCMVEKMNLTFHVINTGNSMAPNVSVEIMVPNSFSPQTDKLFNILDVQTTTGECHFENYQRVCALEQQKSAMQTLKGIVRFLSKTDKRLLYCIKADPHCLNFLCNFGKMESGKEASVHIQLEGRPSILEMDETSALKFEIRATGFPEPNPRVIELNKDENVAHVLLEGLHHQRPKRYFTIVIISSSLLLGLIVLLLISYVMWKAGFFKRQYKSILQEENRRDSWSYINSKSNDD
T1 sequence (P05556 21-798): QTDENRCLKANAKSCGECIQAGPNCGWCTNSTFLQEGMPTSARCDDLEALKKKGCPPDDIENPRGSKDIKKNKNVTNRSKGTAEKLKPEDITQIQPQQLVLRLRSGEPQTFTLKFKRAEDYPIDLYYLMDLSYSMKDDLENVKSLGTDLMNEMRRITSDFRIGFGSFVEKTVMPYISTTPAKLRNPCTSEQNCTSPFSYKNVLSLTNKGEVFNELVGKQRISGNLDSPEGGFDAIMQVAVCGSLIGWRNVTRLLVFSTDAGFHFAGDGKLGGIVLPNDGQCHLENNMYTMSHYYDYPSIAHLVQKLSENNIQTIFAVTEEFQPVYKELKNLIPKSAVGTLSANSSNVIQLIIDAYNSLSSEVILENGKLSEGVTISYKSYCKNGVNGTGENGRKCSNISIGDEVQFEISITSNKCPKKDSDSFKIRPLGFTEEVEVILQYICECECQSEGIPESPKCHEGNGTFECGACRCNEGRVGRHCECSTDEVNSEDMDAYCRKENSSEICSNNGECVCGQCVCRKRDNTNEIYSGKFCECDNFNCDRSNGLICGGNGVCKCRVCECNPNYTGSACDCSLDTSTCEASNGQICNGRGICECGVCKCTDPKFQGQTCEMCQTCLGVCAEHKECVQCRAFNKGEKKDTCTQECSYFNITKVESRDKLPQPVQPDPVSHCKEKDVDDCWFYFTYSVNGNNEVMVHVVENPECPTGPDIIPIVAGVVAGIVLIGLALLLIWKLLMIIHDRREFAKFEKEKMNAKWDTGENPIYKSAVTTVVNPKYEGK
As to the kind of experiment: Jurkat J6/VCAM-1 adhesion assay. Particulars: Jurkat J6 cell adhesion to VCAM-1, 1 mM MnCl2; mean of n experiments. The experiment is classed as cell-based. As to the method: (1) Jurkat J6/VCAM-1 Adhesion Assay
This assay was used to investigate the interaction of the integrin VLA-4, expressed on the Jurkat J6 (human lymphoblast cell line) cell membrane with VCAM-1. Polystyrene 96-well microtitre plates were coated with human immunoglobulin G (IgG; Sigma Chemicals, UK, Product No. 14506) at a concentration of 0.05 mg ml^−1 in bicarbonate buffer (36 mM NaHCO3 and 22 mM Na2CO3, prepared in Dulbecco's phosphate buffered saline at pH 9.8 (PBS); Sigma Chemicals, UK, Product No. 14190-094) for 2 hours at 37° C. This solution was then aspirated and the plates were washed twice with PBS.
VCAM-1 was prepared by cloning its constituent seven domains into a Drosophila expression system with a zz (Protein A) tag. This zzVCAM-1 was then expressed from Drosophila melanogaster S2 cell culture, induced with copper. Protease inhibitors were added and the culture supernatant was clarified either by filtration through a 0.2 μm filter or by centrifugation. The zzVCAM-1 was then purified from this clarified medium using an IgG agarose column, equilibrated with either 20 mM sodium phosphate pH 7.2 alone or in the presence of 0.5M sodium chloride. Elution of zzVCAM-1 from the column was mediated using 3M ammonium thiocyanate, which was subsequently removed using a G25 desalting column, equilibrated with 20 mM sodium phosphate, pH 7.2. The purified zzVCAM-1 was then concentrated to a small volume (Amicon stirred cell concentrators) until a concentration of 62.5 ng ml^−1 was obtained, calculated using the extinction coefficient value.
This solution of zzVCAM-1 was then incubated overnight at 4° C. in the IgG coated microtitre plates with 3% bovine serum albumin (BSA) in PBS, followed by aspiration and two further washes with PBS. A concentration of the Jurkat J6 cells (6×10^6 cels ml^−1), grown in cell media RPMI 1640 (HyClone Ltd, Product No. B-9106-L) supplemented with 10% heat inactivated fetal calf serum (FCS; Gibco BRL, Product No. 10099-075) and 2 mM L-glutamine, were labelled with 10 μM of the fluorescent dye, 2′, 7′-bis(2-carboxyethyl)-5-(e6)-carboxyfluorescein acetoxymethyl ester (BCECF-AM; Molecular Probes Inc, Product No. B-1150) at 37° C. for 10 minutes. The excess dye was then removed by centrifugation at 500×g for 5 minutes and the cells were resuspended at a concentration of 1.2×10^7 cells ml^−1 in Hank's balanced salt solution (HBSS; Gibco BRL, Product No. 14190-094).
Equal volumes of compounds (dissolved in an appropriate solvent and diluted in HBSS containing 1 mM MnCl2) and the labelled Jurkat J6 cells, were added to the VCAM-1 coated plates and adhesion was allowed to proceed for 30 minutes at 37° C. Non, or loosely adhered cells, were removed by inversion of the plate and blotted with tissue paper. Two washes with PBS and further blotting were then performed, before the addition of 2% detergent (Triton-X®; Sigma Chemicals UK, Product No. X100). Counting was undertaken in a Wallac Viktor™ Fluorimeter, where low fluorescence values were indicative of compounds which had inhibited adhesion. All samples were assayed in singlicate and the following four parameter curve fit, shown by Equation (I) was applied: [formula]
Where a is the minimum, b is the Hill slope, c is the IC50 and d is the maximum. (Maximum and minimum values are those compared to adhesion in the absence of compound and in the presence of the dipotassium salt of 2 mM EDTA; Sigma Chemicals, UK, Product No. ED2P). Data is presented as the mean pIC50 with the standard error of the mean of n experiments.

For the compound `CC(C)C[C@H](NC(=O)COc1ccccc1I)C(=O)N[C@@H](Cc1ccc(OC(=O)N2CCN(C(=O)c3ccccc3)CC2)cc1)C(=O)O` [Example 19, (2S)-3-(4-{[(4-Benzoyl-1-piperazinyl)carbonyl]oxy}phenyl)-2-[((2S)-2-{[2-(2-iodophenoxy)acetyl]amino}-4-methylpentanoyl)amino]propanoic acid], inhibition was half-maximal at 7.59 nM (IC50).

In the case of `CC(C)C[C@H](NC(=O)COc1ccc(Cl)cc1Cl)C(=O)N[C@@H](Cc1ccc(OC(=O)N2CCN(C(=O)c3ccccc3)CC2)cc1)C(=O)O` [Example 22, (2S)-3-(4-{[(4-Benzoyl-1-piperazinyl)carbonyl]oxy}phenyl)-2-[((2S)-2-{[2-(2,4-dichlorophenoxy)acetyl]amino}-4-methylpentanoyl)amino]propanoic acid], the IC50 was 22.4 nM. This IC50 is about 3-fold higher than that of the compound before.

As for `Cc1ccccc1OCC(=O)N[C@@H](CC(C)C)C(=O)N[C@@H](Cc1ccc(OC(=O)N2CCOCC2)cc1)C(=O)O` [Example 25, (2S)-2-[((2S)-4-Methyl-2-{[2-(2-methylphenoxy)acetyl]amino}pentanoyl)amino]-3-{4-[(4-morpholinylcarbonyl)oxy]phenyl}propanoic acid], the IC50 is 3.16 nM.

`CC(C)C[C@H](NC(=O)COc1ccccc1I)C(=O)N[C@@H](Cc1ccc(OC(=O)N2CCC(C(N)=O)CC2)cc1)C(=O)O` [Example 26, (2S)-3-[4-({[4-(Aminocarbonyl)-1-piperidinyl]carbonyl}oxy)phenyl]-2-[((2S)-2-{[2-(2-iodophenoxy)acetyl]amino}-4-methylpentanoyl)amino]propanoic acid] gave an IC50 of 2.95 nM.

Take `CC(C)C[C@H](NC(=O)COc1ccccc1C(C)(C)C)C(=O)N[C@@H](Cc1ccc(OC(=O)N2CCC(C(=O)N3CCCCC3)CC2)cc1)C(=O)O` [Example 29, (2S)-2-{[(2S)-2-({2-[2-(Tert-butyl)phenoxy]acetyl}amino)-4-methylpentanoyl]amino}-3-[4-({[4-(1-piperidinylcarbonyl)-1-piperidinyl]carbonyl}oxy)phenyl]propanoic acid]: 16.2 nM corresponded to half-maximal inhibition (IC50). Compared with the last compound, the IC50 is about 5.5-fold higher.

For `Cc1ccccc1OCC(=O)N[C@@H](CC(C)C)C(=O)N[C@@H](Cc1ccc(OC(=O)N2CCC(C(=O)N3CCCCC3)CC2)cc1)C(=O)O` [Example 30, (2S)-2-[((2S)-4-Methyl-2-{[2-(2-methylphenoxy)acetyl]amino}pentanoyl)amino]-3-[4-({[4-(1-piperidinylcarbonyl)-1-piperidinyl]carbonyl}oxy)phenyl]propanoic acid], the IC50 was 5.75 nM.

In turn, `CC(C)C[C@H](NC(=O)c1cccc2c1oc1ccccc12)C(=O)N[C@@H](Cc1ccc(OC(=O)N2CCC(C(=O)N3CCCCC3)CC2)cc1)C(=O)O` [Example 31, (2S)-2-({(2S)-2-[(Dibenzo[b,d]furan-4-ylcarbonyl)amino]-4-methylpentanoyl}amino)-3-[4-({[4-(1-piperidinylcarbonyl)-1-piperidinyl]carbonyl}oxy)phenyl]propanoic acid] had an IC50 of 25.7 nM.

For the compound `CC(C)C[C@H](NC(=O)COc1ccc2ccccc2c1Br)C(=O)N[C@@H](Cc1ccc(OC(=O)N2CCC(C(=O)N3CCCCC3)CC2)cc1)C(=O)O` [Example 32, (2S)-2-{[(2S)-2-({2-[(1-Bromo-2-naphthyl)oxy]acetyl}amino)-4-methylpentanoyl]amino}-3-[4-({[4-(1-piperidinylcarbonyl)-1-piperidinyl]carbonyl}oxy)phenyl]propanoic acid], half-maximal inhibition (IC50) was put at 24 nM.

`CC(C)C[C@H](NC(=O)COc1ccccc1C(C)(C)C)C(=O)N[C@@H](Cc1ccc(OC(=O)N2CCC(C(N)=O)CC2)cc1)C(=O)O` [Example 33, (2S)-3-[4-({[4-(Aminocarbonyl)-1-piperidinyl]carbonyl}oxy)phenyl]-2-{[(2S)-2-({2-[2-(tert-butyl)phenoxy]acetyl}amino)-4-methylpentanoyl]amino}propanoic acid] had an IC50 of 3.47 nM.

Regarding `CC(C)C[C@H](NC(=O)COc1ccccc1C(C)(C)C)C(=O)N[C@@H](Cc1ccc(OC(=O)N2CCC(C(=O)NCc3ccc(F)cc3)CC2)cc1)C(=O)O` [Example 34, (2S)-2-{[(2S)-2-({2-[2-(Tert-butyl)phenoxy]acetyl}amino)-4-methylpentanoyl]amino}-3-(4-{[(4-{[(4-fluorobenzyl)amino]carbonyl}-1-piperidinyl)carbonyl]oxy}phenyl)propanoic acid], the IC50 was 26.9 nM.

`CC(C)C[C@H](NC(=O)COc1ccc(Cl)cc1Cl)C(=O)N[C@@H](Cc1ccc(OC(=O)N2CCOCC2)cc1)C(=O)O` [Example 35, (2S)-2-[((2S)-2-{[2-(2,4-Dichlorophenoxy)acetyl]amino}-4-methylpentanoyl)amino]-3-{4-[(4-morpholinylcarbonyl)oxy]phenyl}propanoic acid] had an IC50 of 6.61 nM.

`CC(C)C[C@H](NC(=O)COc1ccccc1C(=O)c1ccccc1)C(=O)N[C@@H](Cc1ccc(OC(=O)N2CCOCC2)cc1)C(=O)O` [Example 36, (2S)-2-[((2S)-2-{[2-(2-Benzoylphenoxy)acetyl]amino}-4-methylpentanoyl)amino]-3-{4-[(4-morpholinylcarbonyl)oxy]phenyl}propanoic acid] had an IC50 of 12.3 nM.

`CCCc1ccccc1OCC(=O)N[C@@H](CC(C)C)C(=O)N[C@@H](Cc1ccc(OC(=O)N2CCOCC2)cc1)C(=O)O` [Example 37, (2S)-2-[((2S)-4-Methyl-2-{[2-(2-propylphenoxy)acetyl]amino}pentanoyl)amino]-3-{4-[(4-morpholinylcarbonyl)oxy]phenyl}propanoic acid] showed an IC50 of 5.75 nM.

For the compound `CC(C)C[C@H](NC(=O)COc1ccc2ccccc2c1Br)C(=O)N[C@@H](Cc1ccc(OC(=O)N2CCOCC2)cc1)C(=O)O` [Example 38, (2S)-2-{[(2S)-2-({2-[(1-Bromo-2-naphthyl)oxy]acetyl}amino)-4-methylpentanoyl]amino}-3-{4-[(4-morpholinylcarbonyl)oxy]phenyl}propanoic acid], the IC50 was 15.5 nM.

Compound `CC(C)C[C@H](NC(=O)COc1ccccc1C1CCCCC1)C(=O)N[C@@H](Cc1ccc(OC(=O)N2CCOCC2)cc1)C(=O)O` [Example 39, (2S)-2-[((2S)-2-{[2-(2-Cyclohexylphenoxy)acetyl]amino}-4-methylpentanoyl)amino]-3-{4-[(4-morpholinylcarbonyl)oxy]phenyl}propanoic acid] showed an IC50 of 22.4 nM.

Take `CC(C)C[C@H](NC(=O)OCc1ccccc1)C(=O)N[C@@H](Cc1ccc(OC(=O)N2CCOCC2)cc1)C(=O)O` [Example 40, (2S)-2-[((2S)-2-{[(Benzyloxy)carbonyl]amino}-4-methylpentanoyl)amino]-3-{4-[(4-morpholinylcarbonyl)oxy]phenyl}propanoic acid] (Cbz-Leu-Tyr([CO-Morpholide])-OH): half-maximal inhibition (IC50) was put at 9.12 nM.

For `CC(C)C[C@H](NC(=O)COc1ccccc1I)C(=O)N[C@@H](Cc1ccc(OC(=O)N2CCN(C(=O)c3ccco3)CC2)cc1)C(=O)O` [Example 41, (2S)-3-[4-({[4-(2-Furoyl)-1-piperazinyl]carbonyl}oxy)phenyl]-2-[((2S)-2-{[2-(2-iodophenoxy)acetyl]amino}-4-methylpentanoyl)amino]propanoic acid], the IC50 is 9.33 nM.

Consider `CC(C)C[C@H](NC(=O)COc1ccccc1C(C)(C)C)C(=O)N[C@@H](Cc1ccc(OC(=O)N2CCN(C(=O)c3ccco3)CC2)cc1)C(=O)O` [Example 42, (2S)-2-{[(2S)-2-({2-[2-(Tert-butyl)phenoxy]acetyl}amino)-4-methylpentanoyl]amino}-3-[4-({[4-(2-furoyl)-1-piperazinyl]carbonyl}oxy)phenyl]propanoic acid], for which the midpoint of inhibition, the IC50, lay at 11 nM.

In general, IC50 refers to the point on the concentration scale where inhibition reaches its midpoint.
